Laboratory results published in the NIST ThermoML archive (doi:10.1016/j.fluid.2018.05.033).

Columns and labels:
[1] = refractive index (Na D-line) (dimensionless); details: 101.33 kPa, Liquid, Standard Abbe refractometry
[2] = for mass density: 101.33 kPa, Liquid, Vibrating tube method; for Normal melting temperature: Crystal, Phase equilibration
[3] = refractive index (Na D-line) (dimensionless); xn = mol fraction of the nth substance listed; details: 101.3 kPa, Liquid, Standard Abbe refractometry
[4] = xn = mol fraction of the nth substance listed; details: 101.3 kPa, Liquid, Vibrating tube method

O=S1OCCO1 [1,3,2-dioxathiolane, 2-oxide]
298.15 K
Details | mass density [kg/m3] | refractive index
[1] | – | 1.4449
[2] | 1432.17 | –

Details | Normal melting temperature [°C]
[2] | -17.01

O=S1OCCO1 [1,3,2-dioxathiolane, 2-oxide] + CCOC(=O)OC
298.15 K
Details | mass density, [4] [kg/m3] | refractive index, [3]
x2 = 0.0498 | 1404.65 | 1.4405
x2 = 0.0994 | 1378 | 1.4361
x2 = 0.1993 | 1326.76 | 1.4279
x2 = 0.2998 | 1278.43 | 1.42
x2 = 0.3996 | 1233.17 | 1.4127
x2 = 0.5008 | 1189.88 | 1.4056
x2 = 0.5995 | 1149.94 | 1.3991
x2 = 0.7001 | 1111.21 | 1.3927
x2 = 0.8002 | 1074.73 | 1.3867
x2 = 0.8995 | 1040.17 | 1.381
x2 = 0.9501 | 1023.08 | 1.3782

O=S1OCCO1 [1,3,2-dioxathiolane, 2-oxide] + COC(=O)OC
298.15 K
Details | mass density, [4] [kg/m3] | refractive index, [3]
x2 = 0.0499 | 1412.39 | 1.4407
x2 = 0.0997 | 1392.6 | 1.4365
x2 = 0.2002 | 1353.25 | 1.4283
x2 = 0.2999 | 1314.96 | 1.4202
x2 = 0.4 | 1277.01 | 1.4123
x2 = 0.4997 | 1239.88 | 1.4044
x2 = 0.6004 | 1202.89 | 1.3965
x2 = 0.6998 | 1166.91 | 1.3889
x2 = 0.8009 | 1130.5 | 1.3811
x2 = 0.9002 | 1095.66 | 1.3737
x2 = 0.9505 | 1078.06 | 1.37

O=S1OCCO1 [1,3,2-dioxathiolane, 2-oxide] + O=C1CCCO1
298.15 K
Details | mass density, [4] [kg/m3] | refractive index, [3]
x2 = 0.0501 | 1417.36 | 1.4443
x2 = 0.1008 | 1401.19 | 1.4437
x2 = 0.2006 | 1369.54 | 1.4425
x2 = 0.2991 | 1338.59 | 1.4414
x2 = 0.4102 | 1303.97 | 1.4402
x2 = 0.4994 | 1276.38 | 1.4392
x2 = 0.5998 | 1245.54 | 1.4382
x2 = 0.701 | 1214.73 | 1.4373
x2 = 0.7995 | 1184.91 | 1.4365
x2 = 0.9002 | 1154.7 | 1.4356
x2 = 0.9495 | 1139.97 | 1.4353

O=S1OCCO1 [1,3,2-dioxathiolane, 2-oxide] + O=C1OCCO1
318.15 K
Details | mass density, [4] [kg/m3] | refractive index, [3]
x2 = 0.0492 | 1403.48 | 1.4358
x2 = 0.0998 | 1399.66 | 1.435
x2 = 0.2011 | 1391.76 | 1.4333
x2 = 0.3 | 1383.61 | 1.4315
x2 = 0.4024 | 1374.81 | 1.4297
x2 = 0.5005 | 1366.04 | 1.4278
x2 = 0.5994 | 1356.86 | 1.4259
x2 = 0.6997 | 1347.14 | 1.4238
x2 = 0.8005 | 1337 | 1.4217
x2 = 0.8996 | 1326.62 | 1.4196
x2 = 0.9494 | 1321.21 | 1.4185

COC(=O)OC [dimethyl carbonate]
298.15 K
Details | mass density [kg/m3] | refractive index
[1] | – | 1.3662
[2] | 1060.87 | –

Details | Normal melting temperature [°C]
[2] | 4.37

CCOC(=O)OC [ethyl methyl carbonate]
298.15 K
Details | mass density [kg/m3] | refractive index
[1] | – | 1.3754
[2] | 1006.88 | –

Details | Normal melting temperature [°C]
[2] | -51.47

O=C1OCCO1 [ethylene carbonate]
318.15 K
Details | mass density [kg/m3] | refractive index
[1] | – | 1.4172
[2] | 1315.7 | –

Details | Normal melting temperature [°C]
[2] | 37.41

O=C1CCCO1 [γ-butyrolactone]
298.15 K
Details | mass density [kg/m3] | refractive index
[1] | – | 1.4349
[2] | 1124.97 | –

Details | Normal melting temperature [°C]
[2] | -41.87
